Reference: US5688771A, “Lipophilic oligopeptides with immunomodulating activity” (priority 1993, dated 1997)
“Also recorded” adds a separate entry of the source.

Tests used:
[1] = tested on: IgM antibody against SRBC antigen; assay: Enzyme immunoassay of IgM antibody in blood of SRBC-immunized mice; assay type: in vivo
Method: Outbred CD1 mice were immunized with 0.1% volume for volume sheep red blood cell antigen suspended in saline. The mice were injected intraperitoneally with 0.5 ml, suspension of approximately 2×10^7 cells.
The mice were injected shortly thereafter with a suspension of an immunomodulator of the invention. The immunomodulator dose was a 0.23 ml of a 1 mg/ml suspension in phosphate buffered saline. The injected dose was 10 mg/kg. The second injection was also intraperitoneal.
The mice were killed five days after injections. Blood samples were taken for analysis of immunoglobulin. The determination was made by enzyme immunoassay using an anti μ-horseradish peroxidase conjugate. The spleen was removed, transferred to a petri dish containing 2 ml of Hank's balanced salt solution and 10 mMolar Hepes buffer (HBSS-HEPES). The spleen was gently crushed by the use of forceps, and the cell suspension was filtered through cotton gauze to eliminate cellular debris. The filtered suspension was brought to volume (5 ml) by the addition of HBSS-HEPES, the cells counted, and the suspension diluted to a final concentration of 5×10^6 cells/ml.

[2] = tested on: antibody producing cells (SRBC antigen); assay: Plaque forming assay (PFC) in spleen cells of SRBC-immunized mice; assay type: in vivo; details: for Plaque Assay, PFC relative to control (100%) / Plaque Assay, PFC per 10^6 spleen cells: mice, 10 mg/kg i.p.; for Plaque Assay, PFC per 10^6 spleen cells: five days after injections; for Immunomodulating activity (in words): plaque-forming assay, Table 1
YAC-1 tumor cells = assay: Natural killer cell activity, 4 hr chromium release assay; details: for % Chromium Release ± SD, Effector:Target Ratio 25:1 / % Chromium Release ± SD, Effector:Target Ratio 50:1: 50 mg/kg/day i.p. every other day for 4 injections, splenocytes 24 hr after final treatment, n = 5
Method: (§1) Mice were administered a 50 mg/kg dose of the immunomodulators of the invention and were subsequently sacrificed. The spleens were harvested and splenocytes isolated. Immunologic assays were conducted on those splenocytes that were taken 24 hours after final treatment. These cells were subjected to tests to determine macrophage and natural killer (NK) cell function.
Three week-old C57 BL/6 mice were procured and quarantined for 24 to 48 hours prior to treatment. The five oligopeptides described in tables 2, 3 and 4 were admixed with a 0.4% water solution of carboxymethylcellulose. The solutions were stored at 4° C. until use. Ribavarin (1-β-D-ribofuranosyl-1,2,4-triazole-carboxamide) was used in each subsequent experiment as a control.
(§2) Animals were treated with a 50 mg/kg/day dosage of one of the tested compound and were killed 24 hr after the final treatment and their spleens removed. […] Red blood cells were removed by haemolytic lysis.
Natural killer (NK) activity of murine cells was determined by testing splenic cells for their ability to lyse YAC-1 tumor cells in a conventional 4 hr chromium release assay as an indicator of NK was expressed as: % chromium release=(experimental counts per minute (cpm)-background cpm)/(maximum cpm-background cpm)

[3] = tested on: Total T and B cells in splenocytes; assay: Splenic T and B cell enumeration by FACS; assay type: in vivo, C57BL/6 mice; details: for % Cells/Spleen ± SD, B Cells / % Cells/Spleen ± SD, T Cells: 50 mg/kg/day i.p. every other day for 4 injections, n = 5; for % Cells/Spleen ± SD, B Cells: anti-Ly5; for % Cells/Spleen ± SD, T Cells: anti-Thy 1.2; for Effect on B cell counts (in words) / Effect on T cell counts (in words): 50 mg/kg, splenocytes, Hydrochloride
From the text: Splenic cells were enumerated with the following assay. Dispersed splenocytes were reacted with fluorescein isothiocyanate-labelled murine monoclonal antibody anti-Ly5 for B cell enumeration and phycoerythrin-labelled monoclonal antibody anti-Thy 1.2 for T cell counts. The labelled cells were then enumerated with a fluorescence-activated cell sorter (FACS) (EPICS-C, Coulter Corp., Hialeah, Fla.).

[4] = tested on: Macrophage function (IL-1 activity in splenocytes); assay: Macrophage function, IL-1 activity in splenocytes by [3H]thymidine uptake in PHA-stimulated thymocytes; details: for Mean CPM of Treated Thymocytes ± SD: 50 mg/kg/day i.p. every other day for 4 injections, splenocytes 24 hr after final treatment, n = 5; for Effect on macrophage function (in words): 50 mg/kg, splenocytes 24 hours after final treatment, Hydrochloride
Method: as §1
Ribavarin (1-β-D-ribofuranosyl-1,2,4-triazole-carboxamide) was used in each subsequent experiment as a control.
as §2
Macrophage function was assessed by an interleukin-1 (IL-1) assay that utilizes responsiveness of mouse thymocytes to phytohemagglutin (PHA) which is dependent on IL-1 for its reactivity.
The cells were incubated 72 hr at 37° C. During the last 4 hr of the incubation, the cells were pulsed with [^3 H] thymidine (1 μCi/well). The cells were then harvested and [H^3 ] thymidine incorporation was determined using a direct counter.

[5] = tested on: murinecytomegalovirus (MCMV) (Smith strain); assay: MCMV titers in tissues; assay type: in vivo, Swiss Webster female mice; details: 25 mg/kg
[6] = tested on: murinecytomegalovirus (MCMV) (Smith strain); assay: Mortality in MCMV-infected mice; assay type: in vivo, Swiss Webster female mice; details: MCMV-infected mice
[7] = Toxicity controls: mortality and weight gain in uninfected mice; assay type: in vivo; details: mouse, in vivo, 25 mg/kg
Method: Groups of 5 uninfected mice were treated the same way and at the same times as described above. These animal were checked daily for survival. Their weigths were taken before the first treatment and 24 hours after the last treatment to determine drug effect on weight gain.

[8] = 25 mg/kg i.p. once daily for 5 days from 24 hours after virus, 21 days

Row | Compound | Enzyme Immunoassay, IgM antibody relative to control (100%) ([1]; Experiment 5, 10 mg/kg i.p.) | % Chromium Release ± SD, Effector:Target Ratio 25:1 (YAC-1 tumor cells) | % Chromium Release ± SD, Effector:Target Ratio 50:1 (YAC-1 tumor cells) | % Cells/Spleen ± SD, B Cells [3] | % Cells/Spleen ± SD, T Cells [3] | Effect on B cell counts (in words) [3] | Effect on T cell counts (in words) [3] | Mean CPM of Treated Thymocytes ± SD [4] | Effect on macrophage function (in words) [4] | Plaque Assay, PFC relative to control (100%) ([2]; Experiment 5) | Plaque Assay, PFC per 10^6 spleen cells ([2]; Experiment 5) | Immunomodulating activity (in words) [2] | Enzyme Immunoassay, IgM antibody relative to control (100%) ([1]; Experiment 8, 10 mg/kg i.p.) | Plaque Assay, PFC relative to control (100%) ([2]; Experiment 8) | Plaque Assay, PFC per 10^6 spleen cells ([2]; Experiment 8) | also measured
1 | CCCCCCCCCCCCCCCCCCN[C@H](C(=O)N[C@H](CCC(N)=O)C(=O)O)C(C)C.Cl [BCH 1317, Octadecyl L-Valyl D-Glutamine Hydrochloride] | – | – | – | – | – | – | – | – | – | – | – | – | – | – | – | Enzyme Immunoassay, IgM antibody relative to control (100%) ([1]; Experiment 9, 10 mg/kg i.p.): 189%; Plaque Assay, PFC relative to control (100%) ([2]; Experiment 9): 149%; Plaque Assay, PFC per 10^6 spleen cells ([2]; Experiment 9): 750 ± 191 PFC per 10^6 spleen cells
2 | CCCCCCCCCCCCCCCCCCOC(=O)[C@@H](CCC(=O)O)NC(=O)[C@H](C)N.Cl [BCH-526, α-Octadecyl L-Alanyl D-Glutamate Hydrochloride] | 82% | 12.8 ± 2.1% | 17.2 ± 3.3% | 43 ± 1.4% | 40 ± 2.4% | increase % B cells; also recorded: increased B cell counts | suppressing T cells; also recorded: suppressed T cell counts | 3413 ± 206 CPM | moderately inhibitory; also recorded: moderate macrophage suppression | 77% | 325 ± 300 PFC per 10^6 spleen cells | immunosuppressors | – | – | – | –
3 | CCCCCCCCCCCCCCCCCCNC(=O)CC[C@@H](NC(=O)[C@H](C)N)C(N)=O.Cl [BCH-1316, L-Alanyl D-Isoglutamyl Octadecylamine Hydrochloride] | – | – | – | – | – | – | – | – | – | – | – | immunostimulants | 186% | 153% | 759 ± 252 PFC per 10^6 spleen cells | –
4 | CCCCCCCCCCCCCCCCCCOC(=O)CC[C@@H](NC(=O)[C@H](C)N)C(=O)O.Cl [BCH-524, γ-Octadecyl L-Alanyl D-Glutamate Hydrochloride] | 80% | 9.8 ± 3.6% | 14.3 ± 1.9% | 33 ± 10.2% | 35 ± 9.6% | suppressive; also recorded: suppressed | suppressive; also recorded: suppressed | 5491 ± 1269 CPM | somewhat stimulatory; also recorded: macrophage stimulation | 58% | 245 ± 90 PFC per 10^6 spleen cells | immunosuppressors | – | – | – | Effect on natural killer (NK) cell activity (in words) (YAC-1 tumor cells; 50 mg/kg, splenocytes 24 hours after final treatment, Hydrochloride): marginally suppressive; also recorded: marginal natural killer cell suppression
5 | Nc1nc(O)c2ncn(COC(CO)CO)c2n1 [Ganciclovir, reference compound] | – | – | – | – | – | – | – | – | – | – | – | – | – | – | – | Virus titer in Liver ([5]; Day 3): 2.6±0.2 Log10 CCID50/qram; Virus titer in Lung ([5]; Day 3): < 2.5±0.0 Log10 CCID50/qram; Virus titer in salivary gland ([5]; Day 3): 3.1±0.6 Log10 CCID50/qram; Virus titer in spleen ([5]; Day 3): 5.7±0.3 Log10 CCID50/qram; Virus titer in Liver ([5]; Day 6): 3.3±0.8 Log10 CCID50/qram; Virus titer in Lung ([5]; Day 6): 3.5±0.6 Log10 CCID50/qram; Virus titer in salivary gland ([5]; Day 6): 3.3±0.8 Log10 CCID50/qram; Virus titer in spleen ([5]; Day 6): 3.6±0.9 Log10 CCID50/qram; Survivors (%) [6, 8]: 100%; Survivors/total [6, 8]: 10/10; Mean day to death ([6]; 25 mg/kg i.p. once daily for 5 days, of mice that died on or before day 21): > 21 days; Survivors (%) [7]: 100%; Survivors/total [7]: 5/5
6 | Octadecyl L-Alanyl D-Isoglutamyl γ-Glycine Hydrochloride [BCH-1315] | – | – | – | – | – | – | – | – | – | – | – | immunostimulants | 202% | 204% | 1012 ± 207 PFC per 10^6 spleen cells | –
